Converted amounts (≈) assume the structure as drawn. The source made the active and inactive calls. No cut-off for these calls is given here.
Legend:
XF498 = test: Cytotoxicity against human XF498 cells after 48 hrs by sulforhodamine B assay; assay type: functional; conditions: XF498, 48 h, read-out: ED50 (the source's name)
HCT-15 = test: Cytotoxicity against human HCT15 cells after 48 hrs by sulforhodamine B assay; assay type: functional; conditions: HCT-15, 48 h, read-out: ED50 (the source's name)
SK-OV-3 = test: Cytotoxicity against human SKOV3 cells after 48 hrs by sulforhodamine B assay; assay type: functional; conditions: SK-OV-3, 48 h, read-out: ED50 (the source's name)
SK-MEL-2 = test: Cytotoxicity against human SK-MEL-2 cells after 48 hrs by sulforhodamine B assay; assay type: functional; conditions: SK-MEL-2, 48 h, read-out: ED50 (the source's name)
A549 = test: Cytotoxicity against human A549 cells after 48 hrs by sulforhodamine B assay; assay type: functional; conditions: A549, 48 h, read-out: ED50 (the source's name)
Enterobacter cloacae [1] = test: Antibacterial activity against […] resistant Enterobacter cloacae P 99 at 100 ug/ml after 18 hrs by serial dilution; assay type: functional, organism-based
Escherichia coli [2] = test: Antibacterial activity against […] resistant Escherichia coli DC 0 at 100 ug/ml after 18 hrs by serial dilution; assay type: functional, organism-based
RAW264.7 [3] = test: Antiinflammatory activity in mouse RAW264.7 cells assessed as inhibition of NO production at 100 ug/ml; assay type: functional, cell-based
Salmonella enterica = test: Antibacterial activity against […] resistant Salmonella Typhimurium at 100 ug/ml after 18 hrs by serial dilution; assay type: functional, organism-based; conditions: Salmonella enterica subsp. enterica serovar Typhimurium
Pseudomonas aeruginosa [4] = test: Antibacterial activity against […] resistant Pseudomonas aeruginosa 1771M at 100 ug/ml after 18 hrs by serial dilution; assay type: functional, organism-based
Streptococcus pyogenes [5] = test: Antibacterial activity against […] resistant Streptococcus pyogenes 77A at 100 ug/ml after 18 hrs by serial dilution; assay type: functional, organism-based
Escherichia coli [6] = test: Antibacterial activity against […] resistant Escherichia coli DC 2 at 100 ug/ml after 18 hrs by serial dilution; assay type: functional, organism-based
Pseudomonas aeruginosa [7] = test: Antibacterial activity against […] resistant Pseudomonas aeruginosa 1592E at 100 ug/ml after 18 hrs by serial dilution; assay type: functional, organism-based
Escherichia coli [8] = test: Antibacterial activity against […] resistant Escherichia coli 1507E at 100 ug/ml after 18 hrs by serial dilution; assay type: functional, organism-based
Staphylococcus aureus [9] = test: Antibacterial activity against methicillin resistant Staphylococcus aureus 503 at 100 ug/ml after 18 hrs by serial dilution; assay type: functional, organism-based
Staphylococcus aureus [10] = test: Antibacterial activity against methicillin resistant Staphylococcus aureus 285 at 100 ug/ml after 18 hrs by serial dilution; assay type: functional, organism-based
Enterococcus faecium = test: Antibacterial activity against […] resistant Streptococcus faecium MD 8b at 100 ug/ml after 18 hrs by serial dilution; assay type: functional, organism-based
Klebsiella aerogenes = test: Antibacterial activity against […] resistant Klebsiella aerogenes 1522E at 100 ug/ml after 18 hrs by serial dilution; assay type: functional, organism-based
Escherichia coli [11] = test: Antibacterial activity against […] resistant Escherichia coli TEM at 100 ug/ml after 18 hrs by serial dilution; assay type: functional, organism-based
Enterobacter cloacae [12] = test: Antibacterial activity against […] resistant Enterobacter cloacae 1321E at 100 ug/ml after 18 hrs by serial dilution; assay type: functional, organism-based
Streptococcus pyogenes [13] = test: Antibacterial activity against […] resistant Streptococcus pyogenes 308A at 100 ug/ml after 18 hrs by serial dilution; assay type: functional, organism-based
RAW264.7 [14] = test: Antiinflammatory activity in mouse RAW264.7 cells assessed as inhibition of TNFalpha production at 100 ug/ml; assay type: functional, cell-based
Klebsiella oxytoca = test: Antibacterial activity against […] resistant Klebsiella oxytoca 1082E at 100 ug/ml after 18 hrs by serial dilution; assay type: functional, organism-based
Escherichia coli [15] = test: Antibacterial activity against […] resistant Escherichia coli 078 at 100 ug/ml after 18 hrs by serial dilution; assay type: functional, organism-based
RAW264.7 [16] = test: Antiinflammatory activity in mouse RAW264.7 cells assessed as inhibition of IL-6 production at 100 ug/ml; assay type: functional, cell-based
Pseudomonas aeruginosa [17] = test: Antibacterial activity against […] resistant Pseudomonas aeruginosa 1771 at 100 ug/ml after 18 hrs by serial dilution; assay type: functional, organism-based
Pseudomonas aeruginosa [18] = test: Antibacterial activity against […] resistant Pseudomonas aeruginosa 9027 at 100 ug/ml after 18 hrs by serial dilution; assay type: functional, organism-based
Staphylococcus aureus [19] = test: Antibacterial activity against […] resistant Staphylococcus aureus SG 511 at 100 ug/ml after 18 hrs by serial dilution; assay type: functional, organism-based

Work on COC(=O)/C=C/C=C/[C@@H]1[C@@H]2CCC[C@H]2C=C[C@H]1/C=C/C=C/CCCC(=O)NCCC(=O)NCCc1c[nH]c2ccccc12 [APLIDIC ACID AMIDE A] yielded an EC50 (XF498) of 15.6 µg/mL (≈ 26.7 µM), an EC50 (HCT-15) of 13.5 µg/mL (≈ 23.1 µM) and an EC50 (SK-OV-3) of 17.2 µg/mL (≈ 29.5 µM). For the same compound, the EC50 (SK-MEL-2) was 11.7 µg/mL (≈ 20 µM) and the EC50 (A549) was 17.5 µg/mL (≈ 30 µM).
COC(=O)/C=C/C=C/[C@@H]1[C@@H]2CCC[C@H]2C=C[C@H]1/C=C/C=C/CCCC(=O)O [APLIDIC ACID A] was tested, and the Activity (Enterobacter cloacae [1]) was “inactive”, the Activity (Escherichia coli [2]) was “inactive” and the Activity (RAW264.7 [3]) was “inactive”. For the same compound, the EC50 (XF498) was 19.5 µg/mL (≈ 52.6 µM), the Activity (Salmonella enterica) was “inactive” and the Activity (Pseudomonas aeruginosa [4]) was “inactive”. For the same compound, the Activity (Streptococcus pyogenes [5]) was “inactive”, the EC50 (HCT-15) was 12.4 µg/mL (≈ 33.5 µM) and the Activity (Escherichia coli [6]) was “inactive”. For the same compound, the Activity (Pseudomonas aeruginosa [7]) was “inactive”, the EC50 (SK-OV-3) was 15.2 µg/mL (≈ 41 µM) and the Activity (Escherichia coli [8]) was “inactive”. The Activity (Staphylococcus aureus [9]) was “inactive”, the Activity (Staphylococcus aureus [10]) was “inactive” and the Activity (Enterococcus faecium) was “inactive”. The EC50 (SK-MEL-2) was 11.6 µg/mL (≈ 31.3 µM), the Activity (Klebsiella aerogenes) was “inactive” and the Activity (Escherichia coli [11]) was “inactive”. For the same compound, the Activity (Enterobacter cloacae [12]) was “inactive”, the Activity (Streptococcus pyogenes [13]) was “inactive” and the Activity (RAW264.7 [14]) was “inactive”. The Activity (Klebsiella oxytoca) was “inactive”, the Activity (Escherichia coli [15]) was “inactive” and the Activity (RAW264.7 [16]) was “inactive”. For the same compound, the Activity (Pseudomonas aeruginosa [17]) was “inactive”, the EC50 (A549) was 25.2 µg/mL (≈ 68 µM) and the Activity (Pseudomonas aeruginosa [18]) was “inactive”. The Activity (Staphylococcus aureus [19]) was “inactive”.
With O=C(O)CCC/C=C/C=C/[C@@H]1C=C[C@@H]2CCC[C@H]2[C@H]1/C=C/C=C/C(=O)NCCc1ccccc1 [APLIDIC ACID B] the EC50 (XF498) was 21.6 µg/mL (≈ 47 µM), the EC50 (HCT-15) was 13.5 µg/mL (≈ 29.4 µM) and the EC50 (SK-OV-3) was 13.5 µg/mL (≈ 29.4 µM). For the same compound, the EC50 (SK-MEL-2) was 11.4 µg/mL (≈ 24.8 µM) and the EC50 (A549) was 28.4 µg/mL (≈ 61.8 µM).
For O=C(O)CCC/C=C/[C@@H]1C=C[C@@H]2CCC[C@H]2[C@H]1/C=C/C=C/C(=O)NCCc1ccccc1 [APLIDIC ACID C], the EC50 (XF498) was 14 µg/mL (≈ 32.3 µM), the EC50 (HCT-15) was 12 µg/mL (≈ 27.7 µM) and the EC50 (SK-OV-3) was 14.7 µg/mL (≈ 33.9 µM). For the same compound, the EC50 (SK-MEL-2) was 14.5 µg/mL (≈ 33.4 µM) and the EC50 (A549) was 12.3 µg/mL (≈ 28.4 µM).
For COc1cccc2c1C(=O)c1c(O)c3c(c(O)c1C2=O)C[C@@](O)(C(=O)CO)C[C@@H]3O[C@H]1C[C@H](N)[C@H](O)[C@H](C)O1 [DOXORUBICIN], the EC50 (XF498) was 0.029 µg/mL (≈ 0.0534 µM), the EC50 (HCT-15) was 0.071 µg/mL (≈ 0.131 µM) and the EC50 (SK-OV-3) was 0.003 µg/mL (≈ 0.00552 µM). For the same compound, the EC50 (SK-MEL-2) was 0.001 µg/mL (≈ 0.00184 µM) and the EC50 (A549) was 0.001 µg/mL (≈ 0.00184 µM).

From ChEMBL document CHEMBL1154318, “Bicyclic alpha,omega-dicarboxylic acid derivatives from a colonial tunicate of the family Polyclinidae” (2009)
